According to PubChem BioAssay AID588639 (Sanford-Burnham Center for Chemical Genomics, 2011):
Several values for one entry are separate records, joined by “and”; a condition that tells them apart may be missing. Equal entries are not always repeated. Activity calls are given as the source filed them. No rule for the calls is given here.

Molecular target: Alkaline phosphatase, tissue-nonspecific isozyme (Homo sapiens) (UniProt P05186)
Assay: human TNAP enzyme inhibitors, SAR follow-up, selectivity assay for mouse IAP inhibitor project, biochemical, set 2 (AID 588639)
Conditions: purified human TNAP enzyme activity, counter-screen for mouse IAP

Chain of Alkaline phosphatase, tissue-nonspecific isozyme (Homo sapiens) (P05186 whole entry, looked up): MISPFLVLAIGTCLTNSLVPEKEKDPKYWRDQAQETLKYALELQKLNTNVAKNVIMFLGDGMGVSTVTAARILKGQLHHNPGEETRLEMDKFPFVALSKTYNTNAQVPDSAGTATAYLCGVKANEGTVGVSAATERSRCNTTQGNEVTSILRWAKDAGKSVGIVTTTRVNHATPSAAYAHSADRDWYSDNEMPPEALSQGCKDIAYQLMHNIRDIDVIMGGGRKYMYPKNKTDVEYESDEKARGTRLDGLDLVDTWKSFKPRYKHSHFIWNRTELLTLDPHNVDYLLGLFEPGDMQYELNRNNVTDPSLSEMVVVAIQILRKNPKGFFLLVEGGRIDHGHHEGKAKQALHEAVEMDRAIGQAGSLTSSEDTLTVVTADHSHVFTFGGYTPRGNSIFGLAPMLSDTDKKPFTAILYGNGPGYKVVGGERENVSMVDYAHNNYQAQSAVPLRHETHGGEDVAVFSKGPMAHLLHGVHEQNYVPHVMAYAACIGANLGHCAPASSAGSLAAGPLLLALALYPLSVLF

IC50	SMILES
> 100 µM (inactive)	O=C(CCS(=O)(=O)Nc1ccc2[nH]c(=O)oc2c1)NCc1ccccc1Cl
> 100 µM (inactive)	COc1ccc(CNC(=O)CCNS(=O)(=O)c2ccc3[nH]c(=O)oc3c2)c(OC)c1
> 100 µM (inactive)	COc1ccc(/C=N/NC(=O)c2cc(O)c(O)c(O)c2)c(OC)c1
> 100 µM (inactive)	Cc1ccc(C)c(NS(=O)(=O)c2ccc3[nH]c(=O)oc3c2)c1
> 100 µM (inactive)	O=C(NCc1ccccc1)C1CCCN(S(=O)(=O)c2ccc3[nH]c(=O)oc3c2)C1 (stereo unspecified)
> 100 µM (inactive)	O=C(N/N=C/c1c(F)cccc1Cl)c1ccc(O)cc1O
> 100 µM (inactive)	CN(C)c1ccc(CNC(=O)C2CCCN(S(=O)(=O)c3ccc4[nH]c(=O)oc4c3)C2)cc1 (stereo unspecified)
> 100 µM (inactive)	COc1cccc(NC(=O)CCNS(=O)(=O)c2ccc3c(c2)oc(=O)n3C)c1
> 100 µM (inactive)	Cc1ccc(C)c(NC(=O)CCNS(=O)(=O)c2ccc3ccccc3c2)c1
> 100 µM (inactive)	O=c1[nH]c2ccc(S(=O)(=O)NCCc3ccc4c(c3)OCO4)cc2o1
> 100 µM (inactive)	Cc1ccc(C)c(CNC(=O)C2CCCN(S(=O)(=O)c3ccc4[nH]c(=O)oc4c3)C2)c1 (stereo unspecified)
> 100 µM (inactive)	O=c1[nH]c2ccc(S(=O)(=O)NCc3ccc4c(c3)OCO4)cc2o1
> 100 µM (inactive)	COc1ccc(CNC(=O)CCNS(=O)(=O)c2ccc3c(c2)CCC3)c(OC)c1
> 100 µM (inactive)	N#Cc1cccc(NS(=O)(=O)c2ccc3[nH]c(=O)oc3c2)c1
> 100 µM (inactive)	C/C(=N\NC(=O)c1cc(O)c(O)c(O)c1)c1ccc(O)cc1O
> 100 µM (inactive)	O=C(CCNS(=O)(=O)c1ccc2[nH]c(=O)oc2c1)NCc1ccc(C(F)(F)F)cc1
> 100 µM (inactive)	COc1ccccc1CNC(=O)CCCNS(=O)(=O)c1ccc2[nH]c(=O)oc2c1
> 100 µM (inactive)	Cc1ccccc1CNC(=O)CCCNS(=O)(=O)c1ccc2[nH]c(=O)oc2c1
> 100 µM (inactive)	COc1cc(/C=N/NC(=O)c2cc(O)c(O)c(O)c2)ccc1O
> 100 µM (inactive)	CC(C)c1ccc(/C=N/NC(=O)c2cc(O)c(O)c(O)c2)cc1
> 100 µM (inactive)	CSc1cccc(NC(=O)CCNS(=O)(=O)c2ccc3c(c2)oc(=O)n3C)c1
> 100 µM (inactive)	CC(C)Oc1ccc(CNC(=O)C2CCCN(S(=O)(=O)c3ccc4[nH]c(=O)oc4c3)C2)cc1 (stereo unspecified)
> 100 µM (inactive)	Cc1ccc(CNC(=O)C2CCCN(S(=O)(=O)c3ccc4[nH]c(=O)oc4c3)C2)cc1 (stereo unspecified)

IC50	SMILES
> 100 µM (inactive)	O=C(CCNS(=O)(=O)c1ccc2[nH]c(=O)oc2c1)NCc1ccc(F)cc1
> 100 µM (inactive)	O=C(N/N=C/c1ccc(F)c(Br)c1)c1cc(O)c(O)c(O)c1
> 100 µM (inactive)	O=C(N/N=C/c1c(F)cccc1Cl)c1cc(O)c(O)c(O)c1
> 100 µM (inactive)	O=C(CCNS(=O)(=O)c1ccc2[nH]c(=O)oc2c1)NCc1cccc(F)c1
> 100 µM (inactive)	O=C(CCNS(=O)(=O)c1ccc2ccccc2c1)NCCc1ccc2c(c1)OCO2
> 100 µM (inactive)	COc1ccc(NC(=O)CCCNS(=O)(=O)c2ccc3[nH]c(=O)oc3c2)cc1OC
> 100 µM (inactive)	O=C(N/N=C/c1ccc(F)cc1F)c1ccc(O)cc1
> 100 µM (inactive)	O=C(CCNS(=O)(=O)c1ccc2[nH]c(=O)oc2c1)NCCc1ccc(O)cc1
> 100 µM (inactive) and 34.8 µM	Cc1ccc(C)c(NC(=O)CNS(=O)(=O)c2ccc3[nH]c(=O)oc3c2)c1
> 100 µM (inactive)	COc1ccccc1CNC(=O)CCNS(=O)(=O)c1ccc2[nH]c(=O)oc2c1
> 100 µM (inactive)	Cc1ccc(NC(=O)CCNS(=O)(=O)c2ccc3c(c2)oc(=O)n3C)cc1C
> 100 µM (inactive)	COc1cccc(CNS(=O)(=O)c2ccc3[nH]c(=O)oc3c2)c1
> 100 µM (inactive)	O=c1[nH]c2ccc(S(=O)(=O)Nc3ccc4c(c3)OCO4)cc2o1
> 100 µM (inactive)	O=C(N/N=C/c1c(F)cccc1Cl)c1ccc(O)cc1
> 100 µM (inactive)	Cc1ccccc1CNC(=O)C1CCCN(S(=O)(=O)c2ccc3[nH]c(=O)oc3c2)C1 (stereo unspecified)
> 100 µM (inactive)	COc1ccc(CNC(=O)CNS(=O)(=O)c2ccc3[nH]c(=O)oc3c2)cc1
> 100 µM (inactive)	CC(C)(C)c1ccc(/C=N/NC(=O)c2cc(O)c(O)c(O)c2)cc1
> 100 µM (inactive)	O=C(N/N=C/c1ccccc1Cl)c1cc(O)c(O)c(O)c1
> 100 µM (inactive)	O=C(CCNS(=O)(=O)c1ccc2[nH]c(=O)oc2c1)NCc1ccccc1
> 100 µM (inactive)	COc1ccc(NC(=O)CCCNS(=O)(=O)c2ccc3[nH]c(=O)oc3c2)c(OC)c1
> 100 µM (inactive)	CC(=NNC(=O)c1ccccc1OCCOc1ccccc1)c1ccccc1F
> 100 µM (inactive)	O=C(CCNS(=O)(=O)c1ccc2[nH]c(=O)oc2c1)Nc1ccc2c(c1)OCO2
> 100 µM (inactive)	O=C(CCNS(=O)(=O)c1ccc2c(c1)CCC2)NCCc1ccc2c(c1)OCO2

IC50	SMILES
> 100 µM (inactive)	COc1ccc(/C=N\NC(=O)c2cc(O)c(O)c(O)c2)cc1CN1CCN(c2ccc(F)cc2)CC1
80.9 µM and > 100 µM (inactive)	O=C(CCCNS(=O)(=O)c1ccc2[nH]c(=O)oc2c1)NCc1ccccc1Cl
> 100 µM (inactive)	COc1cc(C(=O)N/N=C/c2c(F)cccc2Cl)cc(OC)c1OC
> 100 µM (inactive)	COc1ccc(CNC(=O)CCCNS(=O)(=O)c2ccc3[nH]c(=O)oc3c2)c(OC)c1
> 100 µM (inactive)	COc1cccc(C(=O)N/N=C/c2ccccc2F)c1
> 100 µM (inactive)	COc1ccc(C(=O)N/N=C/c2ccccc2F)cc1
51.4 µM and > 100 µM (inactive)	O=C(CCCNS(=O)(=O)c1ccc2[nH]c(=O)oc2c1)NCc1cccc(F)c1
> 100 µM (inactive)	O=C(CCNS(=O)(=O)c1ccc2[nH]c(=O)oc2c1)NCc1ccc(Cl)cc1
> 100 µM (inactive)	COc1ccc(CNS(=O)(=O)c2ccc3[nH]c(=O)oc3c2)c(OC)c1
> 100 µM (inactive)	COc1ccc(OC)c(NC(=O)C2CCCN(S(=O)(=O)c3ccc4c(c3)oc(=O)n4C)C2)c1 (stereo unspecified)
> 100 µM (inactive)	O=C(NN=Cc1ccccc1F)c1ccc(O)cc1
> 100 µM (inactive)	O=C(CCNS(=O)(=O)c1ccc2[nH]c(=O)oc2c1)NCCc1ccc2c(c1)OCO2
> 100 µM (inactive)	CCOc1ccc(CNC(=O)C2CCCN(S(=O)(=O)c3ccc4[nH]c(=O)oc4c3)C2)cc1OC (stereo unspecified)
> 100 µM (inactive)	O=C(CCNS(=O)(=O)c1ccc2[nH]c(=O)oc2c1)NCc1ccc(O)c(O)c1
> 100 µM (inactive)	N#Cc1ccc(NS(=O)(=O)c2ccc3[nH]c(=O)oc3c2)cc1
> 100 µM (inactive)	COc1cccc(CNC(=O)CCNS(=O)(=O)c2ccc3[nH]c(=O)oc3c2)c1
> 100 µM (inactive)	COc1ccc(C(=O)N/N=C/c2c(F)cccc2Cl)cc1OC
> 100 µM (inactive)	O=C(N/N=C/c1c(Cl)cccc1Cl)c1cc(O)c(O)c(O)c1
> 100 µM (inactive)	O=C(CCS(=O)(=O)Nc1ccc2[nH]c(=O)oc2c1)NCc1cccc(Cl)c1
> 100 µM (inactive)	O=C(N/N=C/c1c(F)cccc1F)c1ccc(O)cc1
> 100 µM (inactive)	COc1cccc(/C=N/NC(=O)c2cc(O)c(O)c(O)c2)c1O
> 100 µM (inactive)	Cc1ccc(NC(=O)CCNS(=O)(=O)c2ccc3c(c2)oc(=O)n3C)cc1
> 100 µM (inactive)	Cc1ccc(NC(=O)CCNS(=O)(=O)c2ccc3[nH]c(=O)oc3c2)cc1C

IC50	SMILES
> 100 µM (inactive)	COc1ccc(/C=N/NC(=O)c2cc(O)c(O)c(O)c2)cc1OC
74.4 µM and 65.5 µM	COc1ccc(NC(=O)CCNS(=O)(=O)c2ccc3[nH]c(=O)oc3c2)cc1OC
> 100 µM (inactive) and 73.8 µM	COc1cccc(CNC(=O)CNS(=O)(=O)c2ccc3[nH]c(=O)oc3c2)c1
> 100 µM (inactive)	O=C(CCCNS(=O)(=O)c1ccc2[nH]c(=O)oc2c1)NCc1ccc2c(c1)OCO2
> 100 µM (inactive)	O=C(N/N=C/c1ccccc1C(F)(F)F)c1cc(O)c(O)c(O)c1
> 100 µM (inactive)	O=C(N/N=C/c1ccc(Br)cc1F)c1cc(O)ccc1O
> 100 µM (inactive)	Cc1ccc(C)c(NC(=O)CCNS(=O)(=O)c2ccc3[nH]c(=O)oc3c2)c1
> 100 µM (inactive)	CSc1cccc(NC(=O)C2CCCN(S(=O)(=O)c3ccc4c(c3)oc(=O)n4C)C2)c1 (stereo unspecified)
> 100 µM (inactive)	O=C(NCc1ccc(F)cc1)C1CCCN(S(=O)(=O)c2ccc3[nH]c(=O)oc3c2)C1 (stereo unspecified)
> 100 µM (inactive)	O=C(N/N=C/c1cc(Br)ccc1F)c1ccc(O)cc1
74.6 µM	O=C(CCCNS(=O)(=O)c1ccc2[nH]c(=O)oc2c1)NCCc1ccc(O)cc1
> 100 µM (inactive)	O=C(N/N=C/c1cccc(Cl)c1Cl)c1cc(O)c(O)c(O)c1
> 100 µM (inactive)	Cc1cc(NC(=O)CCNS(=O)(=O)c2ccc3[nH]c(=O)oc3c2)ccc1Br
> 100 µM (inactive)	CCc1ccc(NC(=O)CCNS(=O)(=O)c2ccc3c(c2)oc(=O)n3C)cc1
> 100 µM (inactive)	COc1ccc(CCNC(=O)CCCNS(=O)(=O)c2ccc3[nH]c(=O)oc3c2)cc1
> 100 µM (inactive)	O=C(CCNS(=O)(=O)c1ccc2[nH]c(=O)oc2c1)NCc1cccc(Cl)c1
> 100 µM (inactive)	CCc1ccc(NC(=O)C2CCCN(S(=O)(=O)c3ccc4c(c3)oc(=O)n4C)C2)cc1 (stereo unspecified)
> 100 µM (inactive) and 81.4 µM	N#Cc1ccc(NC(=O)CNS(=O)(=O)c2ccc3[nH]c(=O)oc3c2)cc1
> 100 µM (inactive)	O=C(NCc1ccc2c(c1)OCO2)C1CCCN(S(=O)(=O)c2ccc3[nH]c(=O)oc3c2)C1 (stereo unspecified)
> 100 µM (inactive)	CCOc1cc(C(=O)N/N=C/c2c(F)cccc2Cl)cc(OCC)c1OCC
> 100 µM (inactive)	O=C(CCNS(=O)(=O)c1ccc2[nH]c(=O)oc2c1)NCc1ccccc1F
> 100 µM (inactive)	N#Cc1cccc(CNC(=O)CCNS(=O)(=O)c2ccc3[nH]c(=O)oc3c2)c1
